# According to patent US20190364896A1, “SYNERGISTIC WEED CONTROL FROM APPLICATIONS OF PYRIDINE CARBOXYLIC ACID HERBICIDES AND ALS INHIBITORS” (Dow AgroSciences LLC, priority 2014, published 2019):
# Where two headings read alike, the source gives them in different places.
# Legend:
# Assay in all cases: Postemergence herbicidal activity, greenhouse trial (visual injury 0-100%)
# Assay type in all cases: in vivo
# [1] = test system: kochia (Kochia scoparia, KCHSC); settings: Bassia scoparia, post-emergence, read-out: % visual injury Obs
# Method: (§1) Seeds of the desired test plant species were planted in Sun Gro MetroMix® 306 planting mixture, which typically has a pH of 6.0 to 6.8 and an organic matter content of about 30 percent, in plastic pots with a surface area of 103.2 square centimeters (cm^2). […] The plants were grown for 7-36 days (d) in a greenhouse with an approximate 14-hour (h) photoperiod which was maintained at about 23° C. during the day and 22° C. during the night. Nutrients and water were added on a regular basis and supplemental lighting was provided with overhead metal halide 1000-Watt lamps as necessary. The plants were employed for testing when they reached the second or third true leaf stage.
# (§2) Weighed amounts of technical or formulated material (emulsifiable concentrate (EC) or soluble concentrate (SL)) were dissolved in a volume of 97:3 volume per volume (v/v) acetone/dimethyl sulfoxide (DMSO) to stock solutions. […] The concentrated stock solutions were diluted with an aqueous mixture of 1.5% v/v of Agri-dex crop oil concentrate to provide the appropriate application rates. Compound requirements are based upon a 12 milliliter (mL) application volume at a rate of 187 liters per hectare (L/ha). Spray solutions of the experimental compound mixtures were prepared by adding the stock solutions to the appropriate amount of dilution solution to form a 12 mL spray solution in two-way combinations. Formulated compounds were applied to the plant material with an overhead Mandel track sprayer equipped with 8002E nozzles calibrated to deliver 187 L/ha over an application area of 0.503 square meters (m^2) at a spray height of 18 inches (43 centimeters (cm)) above average plant canopy. Control plants were sprayed in the same manner with the solvent blank. Application rates for component (a) are in g ae/ha, and application rates for component (b) are in g ai/ha.
# (§3) The treated plants and control plants were placed in a greenhouse as described above and watered by sub-irrigation to prevent wash-off of the test compounds. After 20-22 d, the condition of the test plants as compared with that of the control plants was determined visually and scored on a scale of 0 to 100 percent where 0 corresponds to no injury and 100 corresponds to complete kill. Colby's equation was used to determine the herbicidal effects expected from the mixtures. […]
# (§4) Weighed amounts of technical material were dissolved in a volume of 97:3 volume per volume (v/v) acetone/dimethyl sulfoxide (DMSO) to stock solutions. […] The concentrated stock solutions were diluted with an aqueous mixture of 1.5% v/v of Agri-dex crop oil concentrate to provide the appropriate application rates. Compound requirements are based upon a 12 milliliter (mL) application volume at a rate of 187 liters per hectare (L/ha).
# [2] = test system: thistle (Cirsium arvense, CIRAR); settings: Cirsium arvense, post-emergence, read-out: % visual injury Obs
# Method: as §1, §2, §3, §4
# [3] = test system: wild buckwheat (Polygonum convolvulus, POLCO); settings: Fallopia convolvulus, post-emergence, read-out: % visual injury Obs
# Method: as §1, §2, §3, §4
# [4] = test system: ivyleaf morning-glory (Ipomoea hederacea, IPOHE); settings: Ipomoea hederacea, post-emergence, read-out: % visual injury Obs
# Method: as §1, §2
# (§5) The treated plants and control plants were placed in a greenhouse as described above and watered by sub-irrigation to prevent wash-off of the test compounds. After 20-22 d, the condition of the test plants as compared with that of the control plants was determined visually and scored on a scale of 0 to 100 percent where 0 corresponds to no injury and 100 corresponds to complete kill. The condition of the test plants was compared with that of the control plants as determined visually and scored on a scale of 0 to 100 percent, where 0 corresponds to no injury and 100 corresponds to complete kill. Colby's equation was used to determine the herbicidal effects expected from the mixtures.
# (§6) Compound 1 was formulated as an EC and was combined with florasulam, cloransulam, diclosulam, flumetsulam, penoxsulam, or pyroxsulam. Compound 2 was formulated as an EC and was combined with florasulam or pyroxsulam. The mixtures were applied to winter wheat (TRZAW), common rice (ORYSA), maize (ZEAMX), and the phytotoxicity of the herbicidal compositions was measured. In addition, the efficacy of the herbicidal compositions on blackgrass (Alopecurus myosuroides, ALOMY), pigweed (Amaranthus retrollexus, AMARE), wild oat (Avena fatua, AVEFA), common lambsquarters (Chenopodium album L., CHEAL), thistle (Cirsium arvense CIRAR), nutsedge (Cyperus esculentus, CYPES), barnyardgrass (Echinochloa crus-galli, ECHCG), poinsettia (Euphorbia heterophylla, EPHHL), ivyleaf morning-glory (Ipomoea hederacea, IPOHE), kochia (Kochia scoparia, KCHSC), wild buckwheat (Polygonum convolvulus, POLCO), grain sorghum (Sorghum vulgare, SORVU), chickweed (Stellaria media, STEME), wild pansy (Viola tricolor, VIOTR), was evaluated.
# as §4, with “(L/ha). […]” for “(L/ha).”
# [5] = test system: barnyardgrass (Echinochloa crus-galli, ECHCG); settings: Echinochloa crus-galli, post-emergence, 7.5 g ai/ha; read-out: % visual injury Obs
# Method: as §1, §2, §5, §6
# as §4, with “(L/ha). […]” for “(L/ha).”
# [6] = test system: nutsedge (Cyperus esculentus, CYPES); settings: Cyperus, post-emergence, read-out: % visual injury Obs
# Method: as §1
# as §2, with “technical” for “technical or formulated”, “material” for “material (emulsifiable concentrate (EC) or soluble concentrate (SL))”
# as §3, §2
# [7] = test system: wild pansy (Viola tricolor, VIOTR); settings: Viola tricolor, post-emergence, read-out: % visual injury Obs
# Method: as §1, §2, §5
# as §6, with “Compound 1 was formulated as an EC and was combined with florasulam, cloransulam, diclosulam, flumetsulam, penoxsulam, or pyroxsulam.” left out
# as §4
# [8] = test system: common lambsquarters (Chenopodium album L., CHEAL); settings: Chenopodium album, post-emergence, read-out: % visual injury Obs
# Method: as §1, §2, §5, §6
# as §4, with “(L/ha). […]” for “(L/ha).”
# [9] = test system: grain sorghum (Sorghum vulgare, SORVU)
# Method: as §1, §2, §5, §6
# as §4, with “(L/ha). […]” for “(L/ha).”
# [10] = test system: chickweed (Stellaria media, STEME); settings: Stellaria media, post-emergence, STEME; azimsulfuron 6.25 g ai/ha; read-out: % visual injury Obs
# Method: as §1, §2, §5, §6
# as §4, with “(L/ha). […]” for “(L/ha).”
# [11] = test system: poinsettia (Euphorbia heterophylla, EPHHL); settings: Euphorbia heterophylla, post-emergence, read-out: % visual injury Obs
# Method: as §1
# as §2, with “technical” for “technical or formulated”, “material” for “material (emulsifiable concentrate (EC) or soluble concentrate (SL))”
# as §3, §2
# [12] = test system: pigweed (Amaranthus retroflexus, AMARE); settings: Amaranthus retroflexus, post-emergence, read-out: % visual injury Obs
# Method: as §1, §2, §3, §4
# [13] = test system: wild oat (Avena fatua, AVEFA)
# Method: as §1, §2, §5, §6
# as §4, with “(L/ha). […]” for “(L/ha).”
# [14] = test system: blackgrass (Alopecurus myosuroides, ALOMY)
# Method: as §1, §2, §5, §6
# as §4, with “(L/ha). […]” for “(L/ha).”
smiles,measurement,setting,value
"COc1cc(OC)nc(NC(=O)NS(=O)(=O)N(C)S(C)(=O)=O)n1 [Amidosulfuron, amidosulfuron]",pest or weed control at […],[1]; 7.5 g ai/ha,10%
same,pest or weed control at […],[2]; 7.5 g ai/ha,20%
same,pest or weed control at […],[3]; 7.5 g ai/ha,85%
same,pest or weed control at […],[4]; 7.5 g ai/ha,35%
same,pest or weed control at […],[5],0%
same,pest or weed control at […],[6]; 7.5 g ai/ha,20%
"COc1cc(OC)nc(NC(=O)NS(=O)(=O)c2c(-c3nnn(C)n3)cnn2C)n1 [Azimsulfuron, azimsulfuron]",pest or weed control,"[7]; VIOTR, azimsulfuron 6.25 g ai/ha",60%
same,pest or weed control,"[1]; KCHSC, azimsulfuron 6.25 g ai/ha",0%
same,pest or weed control,"[8]; CHEAL, azimsulfuron 6.25 g ai/ha",10%
same,pest or weed control,"[4]; IPOHE, azimsulfuron 6.25 g ai/ha",93%
same,% visual injury Obs,"[9]; SORVU, azimsulfuron 6.25 g ai/ha",65%
same,pest or weed control,[10],20%
same,pest or weed control,"[11]; EPHHL, azimsulfuron 6.25 g ai/ha",10%
Nc1c(F)c(-c2ccc3cc[nH]c3c2F)nc(C(=O)OCc2ccccc2)c1Cl [Compound 2],pest or weed control at 5 g/ha,[12]; 5 g ae/ha,88%
same,pest or weed control at 10 g/ha,[12]; 10 g ae/ha,100%
same,% visual injury Obs,[13]; 5 g ae/ha,0%
same,% visual injury Obs,[13]; 10 g ae/ha,0%
same,pest or weed control at 5 g/ha,[8]; 5 g ae/ha,88%
same,pest or weed control at 10 g/ha,[8]; 10 g ae/ha,99%
same,pest or weed control at 5 g/ha,[4]; 5 g ae/ha,10%
same,pest or weed control at 10 g/ha,[4]; 10 g ae/ha,20%
same,% visual injury Obs,[14]; 5 g ae/ha,0%
same,% visual injury Obs,[14]; 10 g ae/ha,0%
same,pest or weed control at 5 g/ha,[11]; 5 g ae/ha,35%
same,pest or weed control at 10 g/ha,[11]; 10 g ae/ha,75%
same,pest or weed control at 5 g/ha,[6]; 5 g ae/ha,5%
same,pest or weed control at 10 g/ha,[6]; 10 g ae/ha,10%
"Cc1ccn2nc(S(=O)(=O)Nc3c(F)cccc3F)nc2n1 [Flumetsulam, flumetsulam]",pest or weed control,[7]; 4.375 g ai/ha,70%
same,pest or weed control,[1]; 4.375 g ai/ha,60%
same,pest or weed control,[2]; 4.375 g ai/ha,10%
same,% visual injury Obs,[9]; 4.375 g ai/ha,60%
same,pest or weed control,[11]; 4.375 g ai/ha,30%
same,pest or weed control,[6]; 4.375 g ai/ha,10%
"COc1cc(OC)nc(NC(=O)NS(=O)(=O)c2cc(NC=O)ccc2C(=O)N(C)C)n1 [Foramsulfuron, foramsulfuron]",pest or weed control at 10 g/ha,"[12]; AMARE, foramsulfuron 10 g ai/ha",85%
same,% visual injury Obs,"[14]; ALOMY, foramsulfuron 10 g ai/ha",93%
"COC(=O)c1ccc(CNS(C)(=O)=O)cc1S(=O)(=O)NC(=O)Nc1nc(OC)cc(OC)n1 [Mesosulfuron, mesosulfuron]",pest or weed control at 3 g/ha,"[1]; KCHSC, mesosulfuron 3 g ai/ha",10%
same,pest or weed control at 3 g/ha,"[3]; POLCO, mesosulfuron 3 g ai/ha",20%
same,% visual injury Obs,"[9]; SORVU, mesosulfuron 3 g ai/ha",97%
"COc1cnc(OC)n2nc(NS(=O)(=O)c3c(OCC(F)F)cccc3C(F)(F)F)nc12 [Penoxsulam, penoxsulam]",pest or weed control at 5 g/ha,[1]; 5 g ai/ha,10%
same,pest or weed control at 5 g/ha,[4]; 5 g ai/ha,90%
same,% visual injury Obs,[9]; 5 g ai/ha,0%
same,pest or weed control at 5 g/ha,[11]; 5 g ai/ha,60%
same,pest or weed control at 5 g/ha,[6]; 5 g ai/ha,70%
